The source of these data is patent US8147880B2, “Polyacetylenic compounds for stimulating insulin gene exression, production and secretion” (Academia Sinica, priority 2007, dated 2012).

The subject of assay [1] is RIN-m5F cells. The assay can be described thus: Cytopiloyne-induced insulin secretion after pre-treatment with channel modulators / calcium chelator. The format is cell-based, rat. The settings on record: then cytopiloyne 5 μg/ml for 10 min. The protocol:
RIN-[…] cells were pre-treated with vehicle, diazoxide (100 μM), EGTA (10 μM), or nimodipine (1 μM) for 30 minutes. They were then incubated with cytopiloyne at 5 μg/ml for 10 min. Insulin levels in the cell medium were determined using an insulin Elisa kit.

The subject of assay [2] is db/db mice. The assay can be described thus: Intraperitoneal glucose tolerance test in diabetic db/db mice after oral administration. In kind it is in vivo. The following applies: db/db mice fasted 12 hours, glucose 0.5 g/kg i.p. half an hour later, vs PBS. On the procedure: The db/db mice were purchased from Jackson Laboratory, and then maintained and handled according to the guidelines of Academia Sinica Institutional Animal Care and Utilization Committee (Taiwan). Glibenclamide was purchased from MP Biomedical Inc.
Diabetic db/db mice aged 7-8 weeks were fasted for 12 hours (water allowed) and orally administered with PBS, cytopiloyne at 0.5 mg/kg or Glimepiride at 2.5 mg/kg. Half an hour later, the mice were intraperitoneally injected with glucose at 0.5 g/kg body weight. Blood glucose levels were monitored at 0, 0.5, 1, 1.5, 2 and 3 hours using Elite glucometer.

Assay [3] concerns RIN-m5F cells. The assay can be described thus: Insulin secretion into cell medium (insulin Elisa kit). The format is cell-based, rat. The settings on record: 2.5, 10, and 15 μg/mL for 24 hours. The protocol:
RIN-m5F cells, a rat β cell line, were obtained from the American Type Culture Collection (ATCC). Glucose-free RPMI medium was purchased from Life Technology. The cells were grown in a glucose-free RPMI 1640 medium supplemented with 10% FCS, penicillin (100 U/ml), streptomycin (100 μg/ml), 2-mercapoethanol (50 μM), sodium pyruvate (1 mM), and glutamate (292 μg/ml).
The cells were separately incubated with vehicle, glucose at a high dose (16.7 mM), glucose at a low dose (3.6 mM), and cytopiloyne at 2.5, 10, and 15 μg/mL for 24 hours. Insulin levels in the cell medium were determined using an insulin Elisa kit (Mercodia, Uppsala, Sweden).

The test system of assay [4] is Primary β cells from mice. Description: Insulin levels (intracellular anti-insulin staining, Elisa) in primary β cells. The settings on record: mouse primary β cells; 2.5, 5, or 10 μg/ml for 24 hours; vs vehicle. The format is cell-based. The protocol:
(§1) Primary β cells from mice were seeded in 9-cm^2 plates in a glucose-free RPMI 1640 medium. Both mouse primary β cells and RIN-m5F cells were treated with vehicle or cytopiloyne at 2.5, 5, or 10 μg/ml for 24 hours. The treated cells were subsequently subjected to intracellular staining with anti-insulin antibody (H86, Santa Cruz Biotechnology, CA, USA) and FITC-conjugated anti-rabbit antiserum (BD Biosciences, CA, USA) according to the manufacturer's instruction. The insulin levels in the cell media were determined using an insulin Elisa kit.

Assay [5] concerns db/db mice. Description: Blood glucose levels in fasted diabetic db/db mice after intraperitoneal injection. The format is in vivo. The following applies: db/db mice 7-8 weeks old, fasted 12 hours; 25 μg/kg intraperitoneally; at two hours; vs PBS. On the procedure: The db/db mice were purchased from Jackson Laboratory (Bar Harbor, Me., U.S.A.), and then maintained and handled according to the guidelines of Academia Sinica Institutional Animal Care and Utilization Committee (Taiwan).
Diabetic db/db mice of 7-8 weeks old were fasted for 12 hours (water allowed), and then intraperitoneally injected with phosphate-buffered saline (PBS) or cytopiloyne at 25 μg/kg, blood glucose levels in the mice were monitored at 0, 1, 2, 4, and 6 hours using Elite glucometer.

The test system of assay [6] is human insulin promoter. The assay can be described thus: Insulin promoter luciferase reporter (pINS-Luc / pRL-TK) in transfected RIN-m5F cells. In kind it is cell-based. The settings on record: 2.5, 10, or 15 μg/ml for 24 hours. On the procedure: The pINS-DCR3 vector containing a human insulin promoter was digested by SphI and BamHI and then cloned into a pcDNAΔCMVlue vector to generate the plasmid pINS-Luc. The plasmid pRL-TK containing a thymidine kinase promoter and a Renilla luciferase reporter gene was purchased from Promega.
RIN-m5F cells transfected with pINS-Luc and pRL-TK plasmids were incubated with vehicle, high glucose (16.7 mM), or cytopiloyne at 2.5, 10, or 15 μg/ml for 24 hours.
For orientation: Reporter assays use an easily measured gene product as a stand-in for the process of interest.

Assay [7] has as its system RIN-m5F cells. The assay can be described thus: Insulin levels (intracellular anti-insulin staining, Elisa) in RIN-m5F cells. The format is cell-based, rat. The settings on record: 2.5, 5, or 10 μg/ml for 24 hours, vs vehicle. On the procedure:
as §1

Molecules are shown by their SMILES.

With `O=C(O)CN(CCOCCOCCN(CC(=O)O)CC(=O)O)CC(=O)O` [EGTA], in assay [1] (pre-treatment 10 μM for 30 minutes), the “effect on cytopiloyne-mediated insulin secretion” value is listed as “suppressed cytopiloyne-mediated insulin secretion”.
With `CCC1=C(C)CN(C(=O)NCCc2ccc(S(=O)(=O)NC(=O)N[C@H]3CC[C@H](C)CC3)cc2)C1=O` [Glimepiride, reference compound], in assay [2] (2.5 mg/kg orally), the glucose tolerance result is reported as “improved glucose tolerance”.
Take `CC#CC#CC#CC#CCCC(CO)OC1OC(CO)C(O)C(O)C1O` (stereo not drawn) [cytopiloyne]: the glucose tolerance result in assay [2] (0.5 mg/kg orally) is “improved glucose tolerance as effectively as Glimepiride”. Further, the insulin secretion result in assay [3] is “significantly enhanced insulin secretion”. The insulin levels entry in assay [4] and in assay [7] was “elevated insulin levels” in each case. Further, the blood glucose levels result in assay [5] is “significantly decreased”. Moreover, the insulin transcription result in assay [6] was “stimulated insulin transcription in RIN-m5F cells in a dose-dependent manner”.
On to `CC1=NS(=O)(=O)c2cc(Cl)ccc2N1` [diazoxide], for which, in assay [1] (pre-treatment 100 μM for 30 minutes), the “effect on cytopiloyne-induced insulin secretion” value is listed as “suppressed cytopiloyne-induced insulin secretion”.
